{"source": "patent US11572590B2", "about": "“Methods for evaluating tumor cell spheroids using 3D microfluidic cell culture device” (Dana-Farber Cancer Institute, Inc., priority 2017, dated 2023)", "key": {"off-target kinases [1]": {"target": "T1, off-target kinases (Homo sapiens, UniProt P29320)", "T1 sequence (P29320 21-983)": "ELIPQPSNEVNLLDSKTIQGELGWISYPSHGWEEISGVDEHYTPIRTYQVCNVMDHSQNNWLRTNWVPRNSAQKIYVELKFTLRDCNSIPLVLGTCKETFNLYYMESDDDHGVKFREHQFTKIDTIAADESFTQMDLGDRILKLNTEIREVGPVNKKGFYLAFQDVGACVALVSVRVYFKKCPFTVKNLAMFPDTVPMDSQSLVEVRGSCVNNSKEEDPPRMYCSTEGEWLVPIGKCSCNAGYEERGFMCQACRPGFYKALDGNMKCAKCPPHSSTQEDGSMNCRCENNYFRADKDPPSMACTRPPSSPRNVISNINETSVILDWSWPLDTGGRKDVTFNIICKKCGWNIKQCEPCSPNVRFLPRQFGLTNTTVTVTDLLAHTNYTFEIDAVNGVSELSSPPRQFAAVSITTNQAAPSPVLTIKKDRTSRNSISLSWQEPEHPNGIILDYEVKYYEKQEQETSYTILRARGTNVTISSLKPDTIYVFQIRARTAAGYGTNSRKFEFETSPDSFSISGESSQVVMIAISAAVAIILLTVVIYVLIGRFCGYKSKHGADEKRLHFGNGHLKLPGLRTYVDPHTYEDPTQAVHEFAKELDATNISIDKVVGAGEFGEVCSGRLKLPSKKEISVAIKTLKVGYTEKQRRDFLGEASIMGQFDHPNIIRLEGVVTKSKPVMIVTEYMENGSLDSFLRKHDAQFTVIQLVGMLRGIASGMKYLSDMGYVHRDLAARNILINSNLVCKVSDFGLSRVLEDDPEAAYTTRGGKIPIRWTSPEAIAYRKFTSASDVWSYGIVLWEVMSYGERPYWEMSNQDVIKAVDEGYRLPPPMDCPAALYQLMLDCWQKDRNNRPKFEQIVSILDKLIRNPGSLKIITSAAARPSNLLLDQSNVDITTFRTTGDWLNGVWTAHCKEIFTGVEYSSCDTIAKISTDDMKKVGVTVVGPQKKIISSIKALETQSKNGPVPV", "experiment": "SelectScreen Kinase Profiling, single point inhibition and IC50 for off-target kinases", "assay_type": "biochemical", "settings": "EPHA3, LanthaScreen Binding"}, "off-target kinases [2]": {"target": "T2, off-target kinases (Homo sapiens, UniProt P42679)", "T2 sequence (P42679 1-507)": "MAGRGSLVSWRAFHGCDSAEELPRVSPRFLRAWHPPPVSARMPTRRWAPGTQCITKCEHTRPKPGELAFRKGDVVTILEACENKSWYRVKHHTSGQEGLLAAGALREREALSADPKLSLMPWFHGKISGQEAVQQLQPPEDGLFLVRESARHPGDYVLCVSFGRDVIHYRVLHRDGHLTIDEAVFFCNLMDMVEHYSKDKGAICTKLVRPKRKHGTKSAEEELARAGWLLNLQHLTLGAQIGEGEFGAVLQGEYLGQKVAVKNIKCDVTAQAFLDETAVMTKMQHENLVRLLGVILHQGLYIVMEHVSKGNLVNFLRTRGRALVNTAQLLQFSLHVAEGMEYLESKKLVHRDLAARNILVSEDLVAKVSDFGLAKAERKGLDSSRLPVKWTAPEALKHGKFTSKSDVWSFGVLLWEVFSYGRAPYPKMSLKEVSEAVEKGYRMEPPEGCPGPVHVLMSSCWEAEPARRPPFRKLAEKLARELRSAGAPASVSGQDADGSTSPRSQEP", "experiment": "SelectScreen Kinase Profiling, single point inhibition and IC50 for off-target kinases", "assay_type": "biochemical", "settings": "MATK (HYL), ZLYTE, ATP Km app"}}, "note": "Read-outs that look alike come from different tables or passages of the source."}
{"smiles": "N#Cc1cc(-c2ncnc(Nc3ccc(N4CCN(C5COC5)CC4)cc3)n2)ccc1OC1CCOCC1", "note": "[Compound 1, 5-(4-((4-(4-(oxetan-3-yl)piperazin-1-yl)phenyl)amino)-1,3,5-triazin-2-yl)-2-((tetrahydro-2H-pyran-4-yl)oxy)benzonitrile]", "values": [{"measurement": "inhibition", "setting": "off-target kinases [1]; read-out: % Inhibition 1", "value": 6, "unit": "%"}, {"measurement": "inhibition", "setting": "off-target kinases [1]; read-out: % Inhibition 2", "value": 3, "unit": "%"}, {"measurement": "inhibition", "setting": "off-target kinases [1]; read-out: % Inhibition Avg", "value": 4, "unit": "%"}, {"measurement": "inhibition", "setting": "off-target kinases [2]; read-out: % Inhibition 1", "value": 1, "unit": "%"}, {"measurement": "inhibition", "setting": "off-target kinases [2]; read-out: % Inhibition 2", "value": 2, "unit": "%"}, {"measurement": "inhibition", "setting": "off-target kinases [2]; read-out: % Inhibition Avg", "value": 2, "unit": "%"}]}
